In ChEMBL document CHEMBL5321270, “Discovery of Pyrazolone Carbothioamide Derivatives as Inhibitors of the Pdr1-KIX Interaction for Combinational Treatment of Azole-Resistant Candidiasis” (J Med Chem, 2023):
Converted amounts (≈) assume the structure as drawn. The source made the active and inactive calls. No cut-off for these calls is given here.

Experiments:
[1] = tested on: Nakaseomyces glabratus; test: Antifungal activity against FLC-resistant Candida glabrata 0161 infected in cyclophosphamide immunosuppressed ICR mouse model assessed as pathological change in kidney at 5 mg/kg,ip administrated for 5 days by Hematoxylin and eosin staining based analysis; type: functional, organism-based; settings: time 5.0 day
[2] = AUC (0-infinity) in ICR mouse at 2 mg/kg,iv measured upto 24 hrs by LC-MS/MS analysis; type: ADME, organism-based; parameters: dose 2 mg/kg, time < 24 hrs, route iv; settings: in vivo
[3] = AUC (0-t) in ICR mouse at 2 mg/kg,iv measured upto 24 hrs by LC-MS/MS analysis; type: ADME, organism-based; parameters: time < 24 hrs, dose 2 mg/kg, route iv; settings: in vivo
[4] = Cmax in ICR mouse at 2 mg/kg,iv measured upto 24 hrs by LC-MS/MS analysis; type: ADME, organism-based; parameters: dose 2 mg/kg, time < 24 hrs, route iv; settings: in vivo
[5] = tested on: Nakaseomyces glabratus; test: Synergistic antifungal activity against fluconazole-resistant Candida glabrata 0161 assessed as downregulation of ERG11 gene expression at 4 ug/ml in presence of fluconazole by RT-PCR analysis; type: functional, organism-based; settings: dose 4.0 µg/ml
[6] = tested on: Candida tropicalis; test: Antifungal activity against Candida tropicalis 10186 assessed as fungal growth inhibition incubated for 48 hrs by microplate reader assay; type: functional
[7] = tested on: Candida albicans; test: Antifungal activity against Candida albicans assessed as fungal growth inhibition incubated for 48 hrs by microplate reader assay; type: functional
[8] = Volume of distribution at steady state in ICR mouse at 2 mg/kg,iv measured upto 24 hrs by LC-MS/MS analysis; type: ADME, organism-based; settings: in vivo, read-out: Vdss
[9] = Inhibition of fluorescent probe FITC tagged PDR1-KIX domain (unknown origin) protein-protein interaction assessed as inhibition constant incubated for 2 hrs by fluorescence polarization binding assay
[10] = tested on: Nakaseomyces glabratus; test: Synergistic antifungal activity against fluconazole-resistant Candida glabrata 0161 assessed as inhibition of fungal biofilm formation at 1 ug/ml incubated for 24 hrs in presence of fluconazole by XXT reduction menadione assay; type: functional
[11] = tested on: [Candida] auris; test: Antifungal activity against Candida auris 15448 assessed as fungal growth inhibition incubated for 48 hrs by microplate reader assay; type: functional; settings: Candidozyma auris

Nc1cc(=O)n(C(=S)Nc2ccc3c(c2)CCC3)[nH]1
Activity [1]: Active | AUC(0-inf) [2]: 491 ng·h/mL | AUC(0-t) at 24 h [3]: 489 ng·h/mL | Cmax [4]: 1520 ng/mL | Activity [5]: Active | MIC [6]: 4 µg/mL (≈ 14.6 µM) | MIC [7]: 4 µg/mL (≈ 14.6 µM) | Vd [8]: 1.04 L/kg | Ki [9]: 11.7 µM | inhibition at 1 µg/mL [10]: 33% | MIC [11]: 2 µg/mL (≈ 7.29 µM)
